Test system: Factor VIII activity
Experiment: Factor VIII activity in blood of multiple sclerosis patients under treatment
Format: in vivo, human
Conditions: MS patient with elevated Factor VIII activity during exacerbation
Excerpt: In various embodiments, disclosed herein is a method of detecting or predicting a relapse of multiple sclerosis in an individual afflicted with a form of multiple sclerosis, comprising: (a) providing a blood sample of the individual; (b) testing the blood sample to determine a protein activity or protein level, wherein the protein is Factor VIII, von Willebrand factor, or Protein C; and (c) detecting a relapse of multiple sclerosis in the individual if the protein activity or protein level is elevated compared to the protein activity or protein level in an individual not afflicted with the form of multiple sclerosis or the patient's own lowest baseline value as a form of a control. In some of these embodiments, the form of multiple sclerosis is relapsing-remitting multiple sclerosis with or without secondary progression. In some embodiments, the multiple sclerosis in the individual is in remission. In some embodiments, the blood sample test to determine the protein activity or protein level is performed simultaneously with other blood tests, such as, partial thromboplastin time (PTT) test, International Normalized Ratio (INR) test, and erythrocyte sedimentation rate (ESR) test. In some of these embodiments, the blood sample tests are performed at least once per month during the treatment period and/or monitoring period of multiple sclerosis. […]

Question: “TYSABRI: disease-modifying therapy for multiple sclerosis named only by trade name” was tested. Which “Factor VIII activity after treatment” value did it give?
Answer: returned to normal
